The supplement of paper PMC10307832

Tests used:
Experiment in all cases: relative viability (nuclei count vs DMSO), 5 days (fraction); higher = more cells survive
Doramapimod + Luminespib = compound: Cc1ccc(-n2nc(C(C)(C)C)cc2NC(=O)Nc2ccc(OCCN3CCOCC3)c3ccccc23)cc1 [Doramapimod] + CCNC(=O)c1noc(-c2cc(C(C)C)c(O)cc2O)c1-c1ccc(CN2CCOCC2)cc1 [Luminespib] (partner 0.01 µM)
Method in brief: (§1)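 Lung cancer cell lines were seeded in 1536-well plates and dosed by pin tool the next day, with either a single drug or a fixed anchor-drug dose combined with five library-drug doses (not always all listed) spaced in √10 steps. Five days later, one step fixed the cells and stained their nuclei (final 0.05% Triton X-100, 1% formaldehyde, 1 ug/ml Hoechst), and nuclei were counted on 4× images. Relative viability is the nuclei count in treated wells divided by the count in vehicle wells, and each value is the median of duplicate plates.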

RAF265 + Luminespib = compound: Cn1c(Nc2ccc(C(F)(F)F)cc2)nc2cc(Oc3ccnc(-c4ncc(C(F)(F)F)[nH]4)c3)ccc21 [RAF265] + CCNC(=O)c1noc(-c2cc(C(C)C)c(O)cc2O)c1-c1ccc(CN2CCOCC2)cc1 [Luminespib] (partner 0.01 µM)
Method in brief: as §1

RAF265 + Crizotinib = compound: Cn1c(Nc2ccc(C(F)(F)F)cc2)nc2cc(Oc3ccnc(-c4ncc(C(F)(F)F)[nH]4)c3)ccc21 [RAF265] + C[C@@H](Oc1cc(-c2cnn(C3CCNCC3)c2)cnc1N)c1c(Cl)ccc(F)c1Cl [Crizotinib] (partner 1 µM)
Method in brief: as §1

RAF265 + Phenformin = compound: Cn1c(Nc2ccc(C(F)(F)F)cc2)nc2cc(Oc3ccnc(-c4ncc(C(F)(F)F)[nH]4)c3)ccc21 [RAF265] + N=C(N)NC(=N)NCCc1ccccc1 [Phenformin] (partner 250 µM)
Method in brief: as §1

Cell Line	relative viability (Doramapimod + Luminespib; first compound 0.02 µM)	relative viability (Doramapimod + Luminespib; first compound 0.06325 µM)	relative viability (Doramapimod + Luminespib; first compound 0.2 µM)	relative viability (Doramapimod + Luminespib; first compound 0.6325 µM)	relative viability (Doramapimod + Luminespib; first compound 2 µM)	relative viability (RAF265 + Luminespib; first compound 0.01 µM)	relative viability (RAF265 + Luminespib; first compound 0.03162 µM)	relative viability (RAF265 + Luminespib; first compound 0.1 µM)	relative viability (RAF265 + Luminespib; first compound 0.3162 µM)	relative viability (RAF265 + Luminespib; first compound 1 µM)	relative viability (RAF265 + Crizotinib; first compound 0.01 µM)	relative viability (RAF265 + Crizotinib; first compound 0.03162 µM)	relative viability (RAF265 + Crizotinib; first compound 0.1 µM)	relative viability (RAF265 + Crizotinib; first compound 0.3162 µM)	relative viability (RAF265 + Crizotinib; first compound 1 µM)	relative viability (RAF265 + Phenformin; first compound 0.01 µM)	relative viability (RAF265 + Phenformin; first compound 0.03162 µM)	relative viability (RAF265 + Phenformin; first compound 0.1 µM)	relative viability (RAF265 + Phenformin; first compound 0.3162 µM)	relative viability (RAF265 + Phenformin; first compound 1 µM)
NCI-H1975	0.173	0.192	0.207	0.258	0.266	0.244	0.272	0.199	0.197	0.12	0.894	0.77	0.679	0.456	0.451	0.386	0.343	0.284	0.251	0.205
NCI-H358	0.276	0.424	0.516	0.38	0.208	0.28	0.21	0.231	0.166	0.126	0.618	0.597	0.5	0.395	0.23	0.419	0.308	0.252	0.144	0.149
PC-3 [JPC-3]	0.736	0.656	0.694	0.768	0.671	0.667	0.654	0.713	–	0.386	0.989	0.986	1.06	0.417	0.63	0.457	0.502	0.469	–	0.465
NCI-H1792	0.396	0.345	0.385	0.413	0.356	0.46	0.528	0.379	0.317	0.148	1.01	0.989	0.977	0.839	0.419	0.394	0.182	0.186	0.0818	0.0945
NCI-H596	0.927	1	1	0.994	0.842	1.11	1.06	0.962	1.01	0.625	0.933	0.938	0.962	0.924	0.711	0.869	0.833	0.691	0.689	0.489
RERF-LC-KJ	1.35	1.16	1.24	1.36	1.2	1.34	1.22	1.08	0.763	0.713	0.867	0.818	0.93	0.852	0.632	0.469	0.42	0.389	0.408	0.376
NCI-H322M	0.661	0.914	0.831	0.946	1.02	0.868	0.722	0.545	0.305	0.304	0.897	0.839	0.866	0.281	0.282	0.759	0.815	0.44	0.366	0.269
EBC-1	–	–	–	–	–	–	–	–	–	–	0.181	0.194	0.191	0.26	0.219	–	–	–	–	–
HCC-366	–	–	–	–	–	–	–	–	–	–	0.487	0.473	0.739	0.626	0.404	0.594	0.552	0.596	0.435	0.45
SW 900	0.169	0.185	0.162	0.155	0.165	0.204	0.182	0.169	0.154	0.145	–	–	–	–	–	0.73	0.491	0.665	0.283	0.293
NCI-H1299	–	–	–	–	–	–	–	–	–	–	0.966	0.95	0.93	0.703	0.645	–	–	–	–	–
A549	–	–	–	–	–	–	–	–	–	–	0.72	0.656	0.677	0.511	0.36	0.148	0.123	0.201	0.0774	0.0726
NCI-H1793	0.157	0.174	0.144	0.23	0.161	0.212	0.147	0.184	–	0.222	–	–	–	–	–	0.352	0.351	0.298	–	0.262
NCI-H1623	0.555	0.505	0.52	0.571	0.464	0.608	0.48	0.63	–	0.33	–	–	–	–	–	0.652	0.578	0.646	–	0.388
NCI-H1703	–	–	–	–	–	–	–	–	–	–	0.567	0.512	0.581	0.449	0.195	–	–	–	–	–
HCC-78	–	–	–	–	–	–	–	–	–	–	0.337	0.288	0.381	0.301	0.359	0.87	0.847	0.832	0.647	0.652
NCI-H1395	0.621	0.605	0.641	0.79	0.679	0.633	0.726	0.7	0.658	0.509	–	–	–	–	–	0.438	0.444	0.423	0.409	0.387
NCI-H2342	0.67	0.749	0.701	0.852	0.725	0.713	0.68	0.685	0.577	0.519	–	–	–	–	–	0.502	0.617	0.679	0.468	0.549
Calu-6	–	–	–	–	–	–	–	–	–	–	0.73	0.709	0.658	0.529	0.276	–	–	–	–	–
